Data: ChEMBL document CHEMBL1146169, “In silico identification and biochemical characterization of novel inhibitors of NQO1” (Bioorg Med Chem Lett, 2006)

The molecules below were run against NAD(P)H dehydrogenase [quinone] 1 (Homo sapiens, UniProt P15559).
Sequence of NAD(P)H dehydrogenase [quinone] 1 (P15559 whole entry): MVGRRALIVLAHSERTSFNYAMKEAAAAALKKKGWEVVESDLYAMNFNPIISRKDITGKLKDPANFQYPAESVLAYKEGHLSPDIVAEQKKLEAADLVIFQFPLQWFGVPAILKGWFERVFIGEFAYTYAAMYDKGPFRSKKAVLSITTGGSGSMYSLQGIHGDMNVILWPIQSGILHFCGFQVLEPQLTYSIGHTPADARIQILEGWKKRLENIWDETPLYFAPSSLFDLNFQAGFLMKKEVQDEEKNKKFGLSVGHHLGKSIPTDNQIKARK
Description: Inhibition of human recombinant NQO1

Row | IC50 [µM] | SMILES
1 | 35 | CCOC(=O)C1=NN(c2ccccc2)C(=O)/C1=C\NC(=S)N/N=C1\C(=O)Nc2ccccc21
2 | 3 | Cn1c2cc(O)ccc2c2c3nc4ccccc4nc3cc(O)c21
3 | 3 | O=C1c2ccccc2C(=O)c2c(O)c(NCCCN(CCO)CCO)cc(O)c21
4 | 7.5 | Nc1ccc(O)c2c1C(=O)c1c(O)c(S(=O)(=O)O)cc(N)c1C2=O
5 | 105 | Cn1ncc2c(Cl)ncnc21
6 | 25 | Nc1nc2cc3nc(N)c(N)nc3cc2nc1N
7 | 55 | CNC(=O)N(OC(N)=O)C(C)=O
8 | 3.5 | CCOc1ccc(OCC)cc1 [1,4-DIETHOXYBENZENE]
9 | 2 | O=C1c2ccccc2C(=O)c2c(O)c(NCCCN3CCOCC3)cc(O)c21
10 | 2 | O=c1c2ccccc2c(=O)c2c1c(O)cc1[nH]c3ccccc3[nH]c12
11 | 10 | CN(C)CCNc1ccc2ncn3c4ccc(O)cc4c(=O)c1c23
12 | 10 | COc1ccc(OC)c2cc3ccccc3cc12
13 | 17.5 | O=C1c2ccccc2C(=O)c2c(O)c(NCCCNCCO)cc(O)c21
14 | 35 | O=[N+]([O-])c1ccc(N/N=C(\N=N\c2ccccc2)c2nc3ccccc3[nH]2)c([N+](=O)[O-])c1

Row | SMILES | IC50 [µM]
15 | COc1ccc2c(c1)-c1nn(CCCN(C)C)c3ccc([N+](=O)[O-])c(c13)N2 [PYRAZOLOACRIDINE] | 45
16 | Cc1cc(=O)cc(C)o1 | 20
17 | C(=N\NC1=NCCN1)/c1c2ccccc2c(/C=N/NC2=NCCN2)c2ccccc12 [BISANTRENE] | 25
